Laboratory results published in patent US7348349B2, “Oxazole derivatives” (Hoffmann-La Roche Inc., priority 2002, dated 2008).
Where two headings read alike, the source gives them in different places.

Experiments:
human PPARα [1] = molecular target: T1, human PPARα (Homo sapiens, UniProt Q07869); experiment: Radioligand binding assay, GST-PPARα-LBD
T1 construct: PPARγ (aa 174 to 476) and PPARα (aa 167 to 469); made in house; host or cells: E. coli BL21(pLysS)
T1 sequence (Q07869 167-468 limits assumed): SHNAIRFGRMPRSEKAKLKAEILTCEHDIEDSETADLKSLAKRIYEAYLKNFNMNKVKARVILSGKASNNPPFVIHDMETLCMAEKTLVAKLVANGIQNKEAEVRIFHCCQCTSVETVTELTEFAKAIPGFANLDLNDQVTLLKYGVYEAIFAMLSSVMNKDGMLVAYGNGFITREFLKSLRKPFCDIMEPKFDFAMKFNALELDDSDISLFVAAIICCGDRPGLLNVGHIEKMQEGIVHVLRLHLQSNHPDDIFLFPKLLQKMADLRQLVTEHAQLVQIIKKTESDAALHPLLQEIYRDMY
Source text: (§1) Full-length cDNA clones for human PPARα and mouse PPARγ were obtained by RT-PCR from human adipose and mouse liver cRNA, respectively, cloned into plasmid vectors and verified by DNA sequencing. […] To accomplish this, the portions of the cloned sequences encoding the LBDs were amplified from the full-length clones by PCR and then subcloned into the plasmid vectors. Final clones were verified by DNA sequence analysis.
(§2) Induction, expression, and purification of GST-LBD fusion proteins were performed in E. coli strain BL21(pLysS) cells by standard methods (Ref: Current Protocols in Molecular Biology, Wiley Press, edited by Ausubel et al.).
PPARα receptor binding was assayed in TKE10 (10 mM Tris-HCl, pH 8, 50 mM KCl, 2 mM EDTA, 0.1 mg/ml fatty acid free BSA and 10 mM DTT). For each 96 well 2.4 ug equivalent of GST-PPARα-LBD fusion protein and radioligand, e.g. 40000 dpm 2(S)-(2-benzoyl-phenylamino)-3-{4-[1,1-ditritio-2-(5-methyl-2-phenyl-oxazol-4-yl)-ethoxy]-phenyl}-propionic acid, were incubated in 100 ul volume at RT for 2 hrs. Bound ligand was removed from unbound ligand by solid phase separation using MultiScreen plates (Millipore) filled with 80 ul of SG25 according to the manufacturer's recommendations.
(§3) PPARγ receptor binding was assayed in TKE50 (50 mM Tris-HCl, pH 8, 50 mM KCl, 2 mM EDTA, 0.1 mg/ml fatty acid-free BSA and 10 mM DTT). For each 96 well reaction an 140 ng equivalent of GST-PPARγ-LBD fusion protein was bound to 10 ug SPA beads (PharmaciaAmersham) in a final volume of 50 ul by shaking. The resulting slurry was incubated for 1 h at RT and centrifuged for 2 min at 1300 g. The supernatant containing unbound protein was removed and the semidry pellet containig the recptor-coated beads was resolved in 50 ul of TKE. For radioligand binding e.g. 10000 dpm 2(S)-(2-benzoyl-phenylamino)-3-{4-[1,1-ditritio-2-(5-methyl-2-phenyl-oxazol-4-yl)-ethoxy]-phenyl}-propionic acid in 50 ul were added, the reaction incubated at RT for 1 h and scintillation proximity counting performed. All binding assays were performed in 96 well plates and the amount of bound ligand measured on a Packard TopCount using OptiPlates (Packard). Nonspecific binding was determined in the presence of 10^−4 M unlabelled compound. Dose response curves were done in triplicates within a range of concentration from 10^−10 M to 10^−4 M.

human PPARα [2] = molecular target: T1, human PPARα; experiment: Luciferase transcriptional reporter gene assay, pFA-PPARα-LBD in BHK21 cells; type: cell-based
Method: as §1
(§4) Baby hamster kidney cells (BHK21 ATCC CCL10) were grown in DMEM medium containing 10% FBS at 37° C. in a […] atmosphere. Cells were seeded in 6 well plates at a density of 10^5 Cells/well and then transiently batch-transfected with either the pFA-PPARγ-LBD or pFA-PPARα-LBD expression plasmids plus a reporter plasmid and an expression plasmid encoding the secretable form of alkaline phosphatase (SEAP) as a normalization control. […] Six hours following transfection, the cells were harvested by trypsinization and seeded in 96 well plates at a density of 10^4 cells/well. After 24 hours to allow attachment of cells, the medium was removed and replaced with 100 ul of phenol red-free medium containing the test substances or control ligands (final DMSO concentration: 0.1%). Following incubation of the cells for 24 hours with substances, 50 ul of the supernatant was recovered and analyzed for SEAP activity (Roche Molecular Biochemicals). The remainder of the supernatant was discarded, 50 ul PBS was added per well followed by one volume of Luciferase Constant-Light Reagent (Roche Molecular Biochemicals) to lyse the cells and initiate the luciferase reaction. Luminescence for both SEAP and luciferase was measured in a Packard TopCount. Luciferase activity was normalized to the SEAP control and transcriptional activation in the presence of a test substance was expressed as fold-activation over cells incubated in the absence of the substance. EC50 values were calculated using the XLfit program (ID Business Solutions Ltd. UK).

mouse PPARγ [3] = molecular target: T2, mouse PPARγ (Mus musculus, UniProt P37238); experiment: Radioligand binding assay (SPA), GST-PPARγ-LBD; parameters: PPARγ (aa 174 to 476)
T2 sequence (P37238 204-505): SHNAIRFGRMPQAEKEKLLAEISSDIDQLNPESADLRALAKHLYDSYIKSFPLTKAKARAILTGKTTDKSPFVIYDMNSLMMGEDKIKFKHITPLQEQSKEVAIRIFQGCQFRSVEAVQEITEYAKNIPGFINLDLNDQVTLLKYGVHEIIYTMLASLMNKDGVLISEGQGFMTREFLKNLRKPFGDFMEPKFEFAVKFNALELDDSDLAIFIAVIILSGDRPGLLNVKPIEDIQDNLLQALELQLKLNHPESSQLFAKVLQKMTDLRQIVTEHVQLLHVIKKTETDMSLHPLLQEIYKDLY
Source text: as §1, §2, §3

mouse PPARγ [4] = molecular target: T2, mouse PPARγ; experiment: Luciferase transcriptional reporter gene assay, pFA-PPARγ-LBD in BHK21 cells; type: cell-based; parameters: PPARγ (aa 174 to 476) and PPARα (aa 167 to 469); expressed in transfected cells; host or cells: BHK21 (ATCC CCL10)
Method: as §1, §4

[5] = GST-PPARα-LBD, tritiated radioligand, RT 2 hrs, read-out: PPARα IC50
[6] = BHK21 cells transfected with pFA-PPARα-LBD, 24 hours incubation, read-out: PPARα EC50
[7] = GST-PPARγ-LBD on SPA beads, tritiated radioligand, RT 1 h, read-out: PPARγ IC50
[8] = BHK21 cells transfected with pFA-PPARγ-LBD, 24 hours incubation, read-out: PPARγ EC50

| IC50 (human PPARα [1]; [5]) [nM] | EC50 (human PPARα [2]; [6]) [nM] | IC50 (mouse PPARγ [3]) [nM] | EC50 (mouse PPARγ [4]) [nM] | IC50 (human PPARα [1]) [nM] | EC50 (human PPARα [2]) [nM] | IC50 (mouse PPARγ [3]; [7]) [nM] | EC50 (mouse PPARγ [4]; [8]) [nM] | PPARα IC50 (human PPARα [1]; GST-PPARα-LBD, tritiated radioligand, RT 2 hrs) | PPARα EC50 (human PPARα [2]; BHK21 cells transfected with pFA-PPARα-LBD, 24 hours incubation) | SMILES |
| --- | --- | --- | --- | --- | --- | --- | --- | --- | --- | --- |
| 30 | 163 | 58 | 115 |  |  |  |  |  |  | CCO[C@@H](Cc1ccc(OCc2nc(-c3ccc(OC(C)C)cc3)oc2C)cc1C)C(=O)O [Example 2, (S)-2-Ethoxy-3-{4-[2-(4-isopropoxy-phenyl)-5-methyl-oxazol-4-ylmethoxy]-2-methyl-phenyl}-propionic acid] |
| 87 | 57 | 506 | 87 |  |  |  |  |  |  | CCO[C@@H](Cc1ccc(OCc2nc(-c3ccccc3)oc2C)cc1C)C(=O)O [Example 3, (S)-2-Ethoxy-3-[2-methyl-4-(5-methyl-2-phenyl-oxazol-4-ylmethoxy)-phenyl]-propionic acid] |
| 155 | 38 | 146 | 124 |  |  |  |  |  |  | CCO[C@@H](Cc1ccc(OCc2nc(-c3ccc(F)c(C)c3)oc2C)cc1C)C(=O)O [Example 5, (S)-2-Ethoxy-3-{4-[2-(4-fluoro-3-methyl-phenyl)-5-methyl-oxazol-4-ylmethoxy]-2-methyl-phenyl}-propionic acid] |
| 196 | 21 | 129 | 33 |  |  |  |  |  |  | CCO[C@@H](Cc1ccc(OCc2nc(-c3ccc(F)c(C)c3)oc2C)cc1CC)C(=O)O [Example 9, (S)-2-Ethoxy-3-{2-ethyl-4-[2-(4-fluoro-3-methyl-phenyl)-5-methyl-oxazol-4-ylmethoxy]-phenyl}-propionic acid] |
| 73 | 186 | 31 | 174 |  |  |  |  |  |  | CCO[C@@H](Cc1ccc(OCc2nc(-c3ccc(OC(C)C)cc3)oc2C)cc1Cl)C(=O)O [Example 17, (S)-3-{2-Chloro-4-[2-(4-isopropoxy-phenyl)-5-methyl-oxazol-4-ylmethoxy]-phenyl}-2-ethoxy-propionic acid] |
|  |  |  |  | 52 | 306 | 48 | 138 |  |  | CO[C@@H](Cc1ccc(OCCc2nc(-c3ccccc3)oc2C)cc1O)C(=O)O [Example 23, (S)-3-{2-Hydroxy-4-[2-(5-methyl-2-phenyl-oxazol-4-yl)-ethoxy]-phenyl}-2-methoxy-propionic acid] |
| 177 | 26 | 129 | 75 |  |  |  |  |  |  | CCO[C@@H](Cc1ccc(OCc2nc(-c3ccc(C(C)C)cc3)oc2C)cc1OC)C(=O)O [Example 25, (S)-2-Ethoxy-3-{4-[2-(4-isopropyl-phenyl)-5-methyl-oxazol-4-ylmethoxy]-2-methoxy-phenyl}-propionic acid] |
| 2380 | 213 | 1730 | 678 |  |  |  |  |  |  | CCO[C@@H](Cc1c(C)cc(OCc2nc(-c3ccccc3)oc2C)cc1C)C(=O)O [Example 29, (S)-3-[2,6-Dimethyl-4-(5-methyl-2-phenyl-oxazol-4-ylmethoxy)-phenyl]-2-ethoxy-propionic acid] |
|  |  |  |  | 131 | 150 | 33 | 57 |  |  | CCO[C@@H](Cc1ccc(OCCCc2nc(-c3ccccc3)oc2C)cc1C)C(=O)O [Example 43, (S)-2-Ethoxy-3-{2-methyl-4-[3-(5-methyl-2-phenyl-oxazol-4-yl)-propoxy]-phenyl}-propionic acid] |
|  |  |  |  |  |  |  |  | inactive | inactive | CN(CCOc1ccc(CC2SC(=O)NC2=O)cc1)c1ccccn1 (centres unmarked) [Rosiglitazone, reference compound] |
